Patent US20050215978A1, “Method of enhancing catheter patency using a citrate salt catheter lock solution” (priority 2001, published 2005)

Assays:
bacteremia = assay: monthly incidence of bacteremia in outpatient hemodialysis unit by catheter lock solution; type: in vivo, human patients
[1] = urokinase use to open occluded or low-flowing tunneled catheters / clotting of catheters in dialysis unit; type: in vivo, human patients; conditions: satellite outpatient hospital unit, Jan 1998-May 1999

Substance: heparin
- incidence of bacteremia, percent of patients in the unit per month (bacteremia; RTC unit, 70 patients, about 60% with tunneled catheters, heparin Jan-Jul 1998, citrate locks Sep 1998-Jul 1999, 47% citrate May-Jul 1999): 4.6%
- incidence of bacteremia, all other months (bacteremia; satellite outpatient hospital unit, 20 ESRD patients, Jan 1998-May 1999): zero
- incidence of bacteremia, percent of all patients, the one month with a case (bacteremia; satellite outpatient hospital unit, 20 ESRD patients, Jan 1998-May 1999, one patient in one month): 5%
- urokinase use [1]: remained low
